Results on 2 compounds are retold here after patent US20030176465A1, “Cyclic amino acid derivatives” (priority 2000, published 2003).

The target in series [1] is TF/VIIa (Homo sapiens, UniProt P08709). The experiment in a line: Inhibition of TF/VIIa (IC50, headed 'Affinity to Receptors'). It counts as biochemical. An excerpt: The inhibition of factor VIIa by the compounds according to the invention and the measurement of the anticoagulant and antithrombotic activity can be determined by conventional in-vitro or in-vivo methods. A conventional method for the measurement of the inhibition of factor VIIa is described, for example, by H. F. Ronning et al. in Thrombosis Research 1996, 84, 73-81.

In series [2] the target is factor Xa, human (Homo sapiens, UniProt P00742). The experiment in a line: Inhibition of factor Xa (IC50, headed 'Affinity to Receptors'). It counts as biochemical. From the text: The inhibition of factor Xa by the compounds according to the invention and the measurement of the anticoagulant and antithrombotic activity can be determined by conventional in-vitro or in-vivo methods. A suitable method is described, for example, by J. Hauptmann et al. in Thrombosis and Haemostasis 1990, 63, 220-223.
The inhibition of factor Xa can be measured, for example, by the method of T. Hara et al. in Thromb. Haemostas. 1994, 71, 314-319.

Where a name gives a salt, the structure may show the parent alone.

Sequence of factor Xa, human (P00742 235-488 limits assumed): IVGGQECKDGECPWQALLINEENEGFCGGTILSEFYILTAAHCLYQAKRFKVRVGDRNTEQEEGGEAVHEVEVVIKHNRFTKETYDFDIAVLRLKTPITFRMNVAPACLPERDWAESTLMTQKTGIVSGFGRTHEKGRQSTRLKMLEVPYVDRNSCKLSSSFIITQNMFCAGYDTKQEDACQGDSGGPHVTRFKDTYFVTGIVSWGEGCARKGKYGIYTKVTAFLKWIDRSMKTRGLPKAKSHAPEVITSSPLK
Sequence of factor Xa, human (P00742 41-179 limits assumed): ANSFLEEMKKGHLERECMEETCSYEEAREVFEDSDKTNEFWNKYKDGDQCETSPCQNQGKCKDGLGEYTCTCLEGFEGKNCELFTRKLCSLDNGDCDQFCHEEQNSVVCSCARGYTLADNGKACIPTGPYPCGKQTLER
Sequence of TF/VIIa (P08709 213-466 limits assumed): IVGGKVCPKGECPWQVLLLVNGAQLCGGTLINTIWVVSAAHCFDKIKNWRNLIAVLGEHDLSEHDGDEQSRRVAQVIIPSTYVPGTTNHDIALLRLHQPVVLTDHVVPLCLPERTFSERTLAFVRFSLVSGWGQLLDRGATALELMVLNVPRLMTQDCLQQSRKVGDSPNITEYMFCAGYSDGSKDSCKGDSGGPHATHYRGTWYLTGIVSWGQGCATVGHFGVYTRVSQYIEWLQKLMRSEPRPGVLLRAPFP
Sequence of TF/VIIa (P08709 61-212 limits assumed): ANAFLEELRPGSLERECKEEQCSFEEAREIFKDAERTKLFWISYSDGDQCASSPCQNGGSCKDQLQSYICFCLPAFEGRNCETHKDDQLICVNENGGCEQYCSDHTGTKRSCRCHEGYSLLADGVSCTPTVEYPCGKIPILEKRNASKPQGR
Sequence of TF/VIIa (P13726 33-295 partner): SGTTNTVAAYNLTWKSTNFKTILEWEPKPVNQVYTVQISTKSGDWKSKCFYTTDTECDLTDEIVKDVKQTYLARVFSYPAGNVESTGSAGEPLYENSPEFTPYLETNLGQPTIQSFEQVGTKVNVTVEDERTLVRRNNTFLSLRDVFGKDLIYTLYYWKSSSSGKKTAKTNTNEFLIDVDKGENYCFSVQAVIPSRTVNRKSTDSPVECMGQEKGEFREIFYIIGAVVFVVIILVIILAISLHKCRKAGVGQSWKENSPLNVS

Consider `Nc1nc(F)c(F)c(N2CCC[C@H]2C(=O)Nc2ccc(-c3ccccc3S(N)(=O)=O)cc2)c1F` (as salt: trifluoroacetate) [AF, N-(2′-sulfamoylbiphenyl-4-yl)-(2S)-1-(2-amino-3,5,6-trifluoropyridin-4-yl)pyrrolidine-2-carboxamide, trifluoroacetate], for which the melting point is 180 °C (dec.).
With `NC(=NO)c1cccc(N2CCCCC2C(=O)Nc2ccc(-c3ccccc3S(N)(=O)=O)cc2)c1` [DA, N-(2′-sulfamoylbiphenyl-4-yl)-(2R,S)-1-[3-(N-hydroxyamidino)phenyl]piperidine-2-carboxamide], the melting point is 98 °C (dec.). The same compound showed an IC50 in series [1] of 440 nM. Further, the IC50 in series [2] amounted to 340 nM.
